ChEMBL document CHEMBL4627246, “Pyroglutamide-Based P2X7 Receptor Antagonists Targeting Inflammatory Bowel Disease” (J Med Chem, 2020)

What was measured:
Format in all cases: cell-based
T47D = test: Cytotoxicity against human T47D cells assessed as effect on cell growth at 10 uM incubated for 48 hrs by sulforhodamine B assay
BT-549 = test: Cytotoxicity against human BT549 cells assessed as effect on cell growth at 10 uM incubated for 48 hrs by sulforhodamine B assay; details: bt-549, 48 h
SNB-19 = test: Cytotoxicity against human SNB19 cells assessed as effect on cell growth at 10 uM incubated for 48 hrs by sulforhodamine B assay; details: snb-19, 48 h
UACC-257 = test: Cytotoxicity against human UACC257 cells assessed as effect on cell growth at 10 uM incubated for 48 hrs by sulforhodamine B assay; details: uacc-257, 48 h
LOX IMVI = test: Cytotoxicity against human LOXIMVI cells assessed as effect on cell growth at 10 uM incubated for 48 hrs by sulforhodamine B assay
HT-29 = test: Cytotoxicity against human HT-29 cells assessed as effect on cell growth at 10 uM incubated for 48 hrs by sulforhodamine B assay; details: ht-29, 48 h
IGROV-1 = test: Cytotoxicity against human IGROV1 cells assessed as effect on cell growth at 10 uM incubated for 48 hrs by sulforhodamine B assay; details: igrov-1, 48 h
PC-3 = test: Cytotoxicity against human PC3 cells assessed as effect on cell growth at 10 uM incubated for 48 hrs by sulforhodamine B assay; details: pc-3, 48 h
KM12 = test: Cytotoxicity against human KM12 cells assessed as effect on cell growth at 10 uM incubated for 48 hrs by sulforhodamine B assay; details: km12, 48 h
MDA-MB-468 = test: Cytotoxicity against human MDA-MB-468 cells assessed as effect on cell growth at 10 uM incubated for 48 hrs by sulforhodamine B assay; details: mda-mb-468, 48 h
RPMI-8226 = test: Cytotoxicity against human RPMI8226 cells assessed as effect on cell growth at 10 uM incubated for 48 hrs by sulforhodamine B assay; details: rpmi-8226, 48 h
UO-31 = test: Cytotoxicity against human UO31 cells assessed as effect on cell growth at 10 uM incubated for 48 hrs by sulforhodamine B assay; details: uo-31, 48 h
NCI-H23 = test: Cytotoxicity against human NCI-H23 cells assessed as effect on cell growth at 10 uM incubated for 48 hrs by sulforhodamine B assay; details: nci-h23, 48 h
SF-268 = test: Cytotoxicity against human SF268 cells assessed as effect on cell growth at 10 uM incubated for 48 hrs by sulforhodamine B assay; details: sf-268, 48 h
CAKI-1 = test: Growth inhibition of human Caki1 cells assessed as growth percentage at 10 uM incubated for 48 hrs by sulforhodamine B assay; details: caki-1, 48 h
U-251 = test: Cytotoxicity against human U251 cells assessed as effect on cell growth at 10 uM incubated for 48 hrs by sulforhodamine B assay; details: u-251, 48 h
SF-295 = test: Cytotoxicity against human SF295 cells assessed as effect on cell growth at 10 uM incubated for 48 hrs by sulforhodamine B assay; details: sf-295, 48 h
SN12C = test: Cytotoxicity against human SN12C cells assessed as effect on cell growth at 10 uM incubated for 48 hrs by sulforhodamine B assay
HCT-15 = test: Cytotoxicity against human HCT15 cells assessed as effect on cell growth at 10 uM incubated for 48 hrs by sulforhodamine B assay; details: hct-15, 48 h
NCI/ADR-RES = test: Cytotoxicity against human NCI/ADR-RES cells assessed as effect on cell growth at 10 uM incubated for 48 hrs by sulforhodamine B assay

Measured: Activity

O=C(NCc1ccc(Cl)cc1Cl)[C@@H]1CCC(=O)N1Cc1ccc(Cl)cc1
Non-Toxic: all assays above

O=C(Nc1ccc(Cl)cc1Cl)[C@@H]1CCC(=O)N1Cc1ccccc1Cl
Non-Toxic: all assays above

O=C(NCc1ccccc1Cl)[C@@H]1CCC(=O)N1Cc1ccccc1Cl
Non-Toxic: all assays above

O=C(NCc1ccccc1Cl)[C@@H]1CCC(=O)N1c1ccccc1
Non-Toxic: all assays above

COc1ccc(NC(=O)[C@@H]2C/C(=C\N(C)C)C(=O)N2)cc1
Non-Toxic: all assays above

O=C(NCc1ccc(Cl)cc1Cl)[C@@H]1CCC(=O)N1c1ccc(Cl)cc1Cl
Non-Toxic: all assays above

COc1ccc(CNC(=O)[C@@H]2CCC(=O)N2Cc2ccc(Cl)cc2Cl)c(OC)c1
Non-Toxic: all assays above
